In ChEMBL document CHEMBL1201862, “PubChem BioAssay data set” (2004):
Calls of active or inactive are those of the source.

Experiments:
[1] = cells
[2] = target: Major prion protein (Homo sapiens, UniProt P04156); format: functional, cell-based
[3] = T. cruzi growth inhibition in host cells, dose response, cell-based, plate reader, dry powder, set 2 (AID 652275); format: functional
[4] = viability of uninfected HEp-2 cells – cell-based, HTS, cytotoxicity control for RSV inhibitor project, dose response (AID 2410); format: functional; conditions: human respiratory syncytial virus
[5] = target: fMet-Leu-Phe receptor (Homo sapiens, UniProt P21462); test: formyl peptide receptor binders – dose response (AID 519); format: functional
[6] = cells; conditions: HEK293
[7] = cells; conditions: A549
[8] = viability loss in HepG2 liver cells – cell-based, ATP luminescence, cherry-pick, set 6, cytotoxicity control, dose response (AID 1053125); format: functional
[9] = target: Peroxisome proliferator-activated receptor gamma/Nuclear receptor coactivator 1 (Homo sapiens, UniProt P37231); test: (§1) TR-FRET dose response biochemical High Throughput Screening assay for agonists of the steroid receptor coactivator 1 (SRC-1) recruitment by the peroxisome proliferator-activated receptor gamma (PPAR gamma): non-selective agonists. [Related pubchem assays (depositor defined):AID1300, AID1808, AID504735, AID631]; format: protein assay
[10] = target: Mitogen-activated protein kinase 10 (Homo sapiens, UniProt P53779); test: Dose response biochemical screening assay for inhibitors of c-Jun N-Terminal Kinase 3 (JNK3). [Related pubchem assays: 746 ]
[11] = target: Peroxisome proliferator-activated receptor gamma/Nuclear receptor coactivator 3 (Homo sapiens, UniProt P37231); test: as §1, with “3 (SRC-3)” for “1 (SRC-1)”, “assays: 1301 (Confirmation screen.), 1048 (Primary screen.)]” for “assays (depositor defined):AID1300, AID1808, AID504735, AID631]”; format: functional
[12] = target: Peroxisome proliferator-activated receptor gamma/Nuclear receptor coactivator 2 (Homo sapiens, UniProt P37231); test: TR-FRET dose response biochemical High Throughput Screening assay for agonists of the steroid receptor coactivator 2 (SRC-2) recruitment by the peroxisome proliferator-activated receptor gamma (PPAR gamma): non-selective agonists. [Related pubchem assays: 1297, 1032 ]; format: functional
[13] = target: T1, Nuclear receptor subfamily 0 group B member 1 (Homo sapiens, UniProt P51843); format: functional, cell-based;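 also: HEK293T cells transfected with SF-1 and DAX-1 plus StAR promoter luciferase reporter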
T1 sequence (P51843 whole entry): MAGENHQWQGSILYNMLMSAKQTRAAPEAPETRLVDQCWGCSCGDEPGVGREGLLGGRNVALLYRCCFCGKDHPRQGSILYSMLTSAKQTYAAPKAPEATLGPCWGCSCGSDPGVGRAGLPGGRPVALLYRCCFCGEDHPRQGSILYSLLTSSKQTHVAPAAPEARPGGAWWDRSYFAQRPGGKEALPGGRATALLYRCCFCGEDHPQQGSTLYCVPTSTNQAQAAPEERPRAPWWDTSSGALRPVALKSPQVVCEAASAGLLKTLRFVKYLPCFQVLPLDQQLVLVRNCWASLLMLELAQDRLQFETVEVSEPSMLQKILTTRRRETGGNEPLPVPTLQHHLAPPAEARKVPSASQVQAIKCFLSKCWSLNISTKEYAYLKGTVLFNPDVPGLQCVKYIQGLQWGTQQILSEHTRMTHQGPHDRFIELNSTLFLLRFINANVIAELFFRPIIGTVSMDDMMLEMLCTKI

[14] = cells; format: functional, cell-based
[15] = target: T2, Oxysterols receptor LXR-beta (Homo sapiens, UniProt P55055); format: functional, cell-based;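 also: Cell-based luminescence dose-response assay of agonist activity at LXR, run as a confirmatory counterscreen to a daf-12 agonist screen; HEK293 cells with Gal4-LXR fusion and GAL4-driven luciferase reporter; agonist potency from rising luciferase signal of a Gal4-LXR reporter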
T2 sequence (P55055 whole entry): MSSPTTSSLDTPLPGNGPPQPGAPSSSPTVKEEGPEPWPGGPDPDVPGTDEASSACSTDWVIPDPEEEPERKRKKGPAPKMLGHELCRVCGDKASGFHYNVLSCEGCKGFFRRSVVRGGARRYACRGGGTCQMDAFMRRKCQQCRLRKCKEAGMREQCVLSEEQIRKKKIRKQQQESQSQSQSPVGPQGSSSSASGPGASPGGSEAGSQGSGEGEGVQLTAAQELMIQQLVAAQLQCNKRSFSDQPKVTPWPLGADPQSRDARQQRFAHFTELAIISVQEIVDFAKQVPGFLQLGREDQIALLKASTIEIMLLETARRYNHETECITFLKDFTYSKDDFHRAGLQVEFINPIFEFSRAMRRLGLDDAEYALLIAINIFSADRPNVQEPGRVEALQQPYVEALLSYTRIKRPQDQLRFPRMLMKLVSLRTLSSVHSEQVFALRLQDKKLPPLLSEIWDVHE

[16] = cells; remark: listed apart in the source
[17] = target: Long-chain-fatty-acid--AMP ligase FadD28 (Mycobacterium tuberculosis, UniProt P9WQ59); test: Fluorescence polarization aasay to screen for inhibitors that compete for the binding of FadD28 to a bisubstrate Measured in Biochemical System Using Plate Reader - 2147-01_Inhibitor_Dose_CherryPick_Activity.; format: functional, Mycobacterium tuberculosis H37Rv
[18] = target: T3, Corticotropin-releasing factor receptor 2/Corticotropin-releasing factor-binding protein (Homo sapiens, UniProt P24387+Q13324); test: activators of CRF receptor 2 with binding protein – uHTS hits, confirmation (AID 602473); format: functional; conditions: read-out: EC50_Mean
T3 sequence (Q13324 whole entry): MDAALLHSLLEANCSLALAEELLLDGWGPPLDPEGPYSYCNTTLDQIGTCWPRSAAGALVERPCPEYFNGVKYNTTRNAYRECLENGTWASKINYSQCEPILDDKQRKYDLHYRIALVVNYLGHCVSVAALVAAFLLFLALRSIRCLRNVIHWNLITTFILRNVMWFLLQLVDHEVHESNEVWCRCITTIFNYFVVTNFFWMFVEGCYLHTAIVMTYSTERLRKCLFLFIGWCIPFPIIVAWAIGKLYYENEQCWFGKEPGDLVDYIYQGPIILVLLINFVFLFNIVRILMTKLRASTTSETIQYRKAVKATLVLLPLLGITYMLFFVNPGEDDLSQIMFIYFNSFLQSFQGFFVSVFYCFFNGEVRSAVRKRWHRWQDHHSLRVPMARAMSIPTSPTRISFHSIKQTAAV
T3 sequence (P24387 whole entry): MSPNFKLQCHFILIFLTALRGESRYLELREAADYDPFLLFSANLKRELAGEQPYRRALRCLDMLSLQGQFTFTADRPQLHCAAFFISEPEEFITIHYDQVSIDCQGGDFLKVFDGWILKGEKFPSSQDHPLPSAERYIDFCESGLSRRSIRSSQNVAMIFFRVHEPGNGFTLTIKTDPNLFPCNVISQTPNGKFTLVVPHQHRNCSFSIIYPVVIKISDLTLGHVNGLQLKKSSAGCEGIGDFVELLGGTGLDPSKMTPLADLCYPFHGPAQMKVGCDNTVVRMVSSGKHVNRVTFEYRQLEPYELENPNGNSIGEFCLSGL

[19] = DRD fibroblast viability loss – cell-based, non-viral oncogenic, luminescence, dose response (AID 1934); format: functional; conditions: Homo sapiens
[20] = test system: BJ; test: BJ-TERT-LT-ST fibroblast viability loss – cell-based, RAS-independent, luminescence, dose response (AID 1935); format: functional; conditions: Homo sapiens;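 also: BJ fibroblasts immortalized with TERT plus LT and ST oncogenes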
[21] = test system: INS1; test: INS-1E survival protection against cytokine death – cell-based, luminescence, retest, dose response (AID 449756); format: functional; conditions: Rattus norvegicus;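 also: cell death triggered by IL-1 beta plus TNF-alpha plus IFN-gamma mixture; protective hits raise ATP signal compared with cytokine alone wells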
[22] = test system: BJ; test: BJ-TERT fibroblast viability loss – cell-based, RAS-independent, luminescence, dose response (AID 1933); format: functional; conditions: Homo sapiens
[23] = Luminescence Cell-Based Dose Response HTS to Identify Inhibitors of 5'UTR Stem-Loop Driven Prion Protein mRNA Translation in H4 Neuroglioblastoma Cells. [Related pubchem assays: 1827 (Project Summary), 1813 (Primary HTS)]; format: functional
[24] = test system: BJ; test: growth inhibition of engineered Ras-driven BJ cells – cell-based, alamar blue fluorescence, cherrypicked samples, dose response (AID 2631); format: functional; conditions: Homo sapiens;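 also: confirmatory dose-response assay in RAS-dependent BJ fibroblasts engineered with TERT, LT and ST, with cytotoxicity read by fluorescence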
[25] = luciferase reporter signal suppression in cells – H4 neuroglioma cells, luminescence, dose response (AID 1990); format: functional, cell-based
[26] = viability loss in HEK293T cells – cell-based, cherry-picks, cytotoxicity control for HIV Vif inhibitor project, dose response (AID 652208); format: functional
[27] = test system: BJ; test: cells; format: functional, cell-based; conditions: Homo sapiens
[28] = IGROV1 cell killing – plate reader, dry powder samples, PAX8 inhibitor project, dose response (AID 743043); format: functional, cell-based; conditions: IGROV-1
[29] = target: Paired box protein Pax-8 (Homo sapiens, UniProt Q06710); test: PAX8 transcriptional activity inhibition in RMG-I – RMG-I cells, luciferase, cherry-pick, dose response (AID 687027); format: functional, cell-based;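 also: luciferase reporter driven by Pax8 target thyroperoxidase promoter measured by SteadyGlo luminescence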
[30] = OVCAR-3 cell viability loss – plate reader, dry powder samples, PAX8 inhibitor project, dose response (AID 743044); format: functional, cell-based
[31] = toxicity toward HepG2 liver cells – cell-based, plate reader, cherry-pick, antagonist series, cytotoxicity control, dose response (AID 743416); format: functional
[32] = A549 cell cytotoxicity, dose response, cytotoxicity control, plate reader, cherry-pick, antagonist series (AID 743412); format: functional, cell-based

Question: What does the source list for O=C(c1ccc(F)cc1)c1cn(Cc2ccc(F)cc2)c2cc3c(cc2c1=O)OCCO3?
Answer: IC50 [1]: > 138 µM (inactive); IC50 [2]: 3.03 µM (active)

Question: Which AC50 [3] does the source give for COc1cccc(CN(C)C[C@H]2Oc3c(NC(=O)c4ccncc4)cccc3C(=O)N([C@@H](C)CO)C[C@@H]2C)c1 here?
Answer: 0.0568 µM (active)

Question: Which CC50 [4] does the source give for Cc1nc2c(-c3ccc(F)cc3)c(C)nn2c(C)c1CCC(=O)NC(C)CCc1ccco1 (stereo not drawn) here?
Answer: > 50 µM (active)

Question: And the Ki [5]?
Answer: > 66.7 µM (inactive)

Question: With COc1ccc(C2C(C(=O)c3ccco3)=C(O)C(=O)N2CCc2ccccc2)cc1OC (stereo not drawn) as the compound, how does the Ki [5] read?
Answer: 36.9 µM (inactive)

Question: Which AC50 [3] does the source give for CCN(C)C[C@H]1Oc2c(NC(=O)c3ccncc3)cccc2C(=O)N(C(C)C)[C@@H]1C here?
Answer: 0.0842 µM (active)

Question: What does the source list for CC(=O)Nc1cccc(-c2ccnc3c2CC(C(=O)NCc2cccc(Cl)c2)O3)c1 (stereo not drawn)?
Answer: AC50 [6]: 40.1 µM (active); AC50 [7]: > 52 µM (inactive); AC50 [8]: > 52 µM (inactive)

Question: Which EC50 [9] does the source give for COc1ccc2c(Cl)c(C(N)=O)sc2c1 here?
Answer: > 79.4 µM (inactive)

Question: And the IC50 [1]?
Answer: > 138 µM (inactive)

Question: And the IC50 [2]?
Answer: 2.46 µM (active)

Question: And the IC50 [10]?
Answer: 68.3 µM (not active)

Question: What about the EC50 [11] of the same compound?
Answer: > 79.4 µM (not active)

Question: And the EC50 [12]?
Answer: 16.7 µM (not active)

Question: With CN1CCN(c2ccc(-c3cccc(NC(=O)COc4ccccc4)c3)nn2)CC1 as the compound, how does the IC50 [13] read?
Answer: > 67.5 µM (inactive)

Question: And the IC50 [14]?
Answer: > 67.5 µM (inactive)

Question: What does the source list for c1ccc(-c2csc(Nc3ccc4c(c3)OCCO4)n2)cc1?
Answer: EC50 [15]: > 67.5 µM (inactive); EC50 [16]: > 67.5 µM (inactive)

Question: What does the source list for O=C1N=C(S)SC1=Cc1ccc(N(CCCl)CCCl)cc1?
Answer: AC50 [17]: 66.7 µM (active); EC50 [18]: 5.45 µM (active)

Question: For CC1CN(S(=O)(=O)c2ccc(C(=O)NCCCn3ccnc3)cc2)CC(C)O1 (stereo not drawn), which EC50 [19] is on record?
Answer: 13.2 µM (active)

Question: And the EC50 [20]?
Answer: 3.76 µM (inconclusive)

Question: What about the AC50 [21] of the same compound?
Answer: 1.17 µM (active)

Question: What about the EC50 [22] of the same compound?
Answer: > 150 µM (not active)

Question: What about the EC50 [23] of the same compound?
Answer: 7.94 µM (active)

Question: What about the EC50 [24] of the same compound?
Answer: 0.39 µM (active)

Question: And the EC50 [25]?
Answer: 11.1 µM (active)

Question: What about the AC50 [26] of the same compound?
Answer: > 52 µM (inactive)

Question: What about the EC50 [27] of the same compound?
Answer: 5.83 µM (inconclusive)

Question: For C[C@H](CO)N1C[C@H](C)[C@H](CN(C)Cc2ccc(C(F)(F)F)cc2)OCCCC[C@H](C)Oc2ccc(NC(=O)Nc3ccc4c(c3)OCO4)cc2C1=O, which AC50 [28] is on record?
Answer: 40.3 µM (active)

Question: And the AC50 [29]?
Answer: 5.42 µM (active)

Question: And the AC50 [30]?
Answer: 28.6 µM (active)

Question: Which IC50 [13] does the source give for Cc1ccc(C(=O)Nc2ncccc2O)o1 here?
Answer: 24.7 µM (inactive)

Question: And the IC50 [14]?
Answer: > 67.6 µM (inactive)

Question: With Cn1c(=O)c2cc(NC(=O)NCc3ccccc3)ccc2n1C/C=C/c1ccccc1 as the compound, how does the AC50 [31] read?
Answer: 36.9 µM (active)

Question: And the AC50 [32]?
Answer: 18.2 µM (active)
